Assay results: US7612071B2, “Compositions and methods employing aminopterin” (Syntrix Biosystems, Inc., priority 2004, dated 2009)
Read-outs that look alike come from different tables or passages of the source.

Tests used:
[1] = tested on: standard and high-risk ALL; conditions: for Toxicity Component: Antifolate dose causing 5.8% of the population to have the toxicity: Elevations in liver enzymes >5 times normal (severe hepatotoxicity)
[2] = MTX 15-25 mg/m^2 PO, n=22, prior art; cited from earlier work
[3] = MTX 15-25 mg/m^2 PO, n=38, prior art; cited from earlier work
[4] = mice, 4 weekly ip doses (aminopterin 0.03 mg/kg, methotrexate 0.3 mg/kg); days 1 and 22 after last dose
[5] = oral doses greater than about 7.5 mg/m^2; cited from earlier work
[6] = MTX 15-25 mg/m^2, pediatric patients, n=22, prior art; cited from earlier work
[7] = AMT 2 mg/m^2 PO x 2 (n=75), MTX 25 mg/m^2 PO x 4 (n=41)
[8] = AMT 2 mg/m^2 PO x 2 (n=81), MTX 25 mg/m^2 PO x 4 (n=42)
[9] = AMT 2 mg/m^2 PO x 2 (n=104), MTX 25 mg/m^2 PO x 4 (n=63)

In the case of `CN(Cc1cnc2nc(N)nc(N)c2n1)c1ccc(C(=O)N[C@@H](CCC(=O)O)C(=O)O)cc1` [MTX, methotrexate, reference compound], the “Event-free survival (EFS) at 24-months, Kaplan Meier” value ([1]; 25 high risk patients receiving aminopterin, standard risk patients receiving methotrexate) is reported as 86%, the “Coefficient of variation of toxicity, absolute neutrophil count in consolidation” value [1, 7] is reported as 85% and the “Mean absolute neutrophil count in consolidation” value [1, 7] is reported as 1919 cells/μL. The “Coefficient of variation of toxicity, platelet counts in consolidation” value [1, 8] was 47%, the “Mean platelet counts in consolidation” value [1, 8] was 312 cells × 10^3/μL and the “Coefficient of variation of toxicity, level of liver enzymes above normal” value [1, 9] was 36%. The “Mean level of liver enzymes above normal” value [1, 9] was 177 IU/L ALT, the “Coefficient of variation of toxicity, level of liver enzymes above normal” value ([1]; AMT 2 mg/m^2 PO x 2 (n=104), MTX 25 mg/m^2 PO x 4 (n=63), listed as methotrexate) was 36% and the “Toxicity Component: Antifolate dose with same toxicity as MTX at 100 mg/m^2/wk” value (“Toxicity Component … at 100 mg/m^2/wk” for short) ([1]; Any elevation of liver enzymes) was 100 mg/m^2/wk. For the same compound, the “Toxicity Component: Antifolate dose causing 5.8% of the population to have the toxicity” value [1] was under 100 mg/m^2/wk, the “Toxicity Component: Antifolate dose causing 5.8% of the population to have the toxicity” value ([1]; listed as methotrexate) was “less than 100 mg/m^2/wk” and the “Toxicity Component … at 100 mg/m^2/wk” value ([1]; Hospital admissions) was 100 mg/m^2/wk. The “Toxicity Component … at 100 mg/m^2/wk” value ([1]; Mucositis) was 100 mg/m^2/wk, the “Toxicity Component … at 100 mg/m^2/wk” value ([1]; Myelosuppression) was 100 mg/m^2/wk and the “Toxicity Component … at 100 mg/m^2/wk” value ([1]; Neutropenia) was 100 mg/m^2/wk. The “Toxicity Component … at 100 mg/m^2/wk” value ([1]; Thrombocytopenia) was 100 mg/m^2/wk, the “Toxicity Component … at 100 mg/m^2/wk” value ([1]; Treatment interruptions) was 100 mg/m^2/wk and the “Toxicity Component … at 100 mg/m^2/wk” value ([1]; eAMT and eMTX (marrow exposure)) was 100 mg/m^2/wk. For the same compound, the “Interpatient coefficient of variation of oral bioavailability” value [2] was 59%, the “Mean intrapatient coefficient of variation of oral bioavailability” value [3] was 34% and the “antifolate content in liver, aminopterin vs methotrexate” value [4] was “no different”. For the same compound, the oral bioavailability [5] was at most 44%, the “Interpatient oral bioavailability (%)” value [6] was 44% and the “Maximum (%) oral bioavailability” value [6] was 95%. For the same compound, the “Minimum (%) oral bioavailability” value [6] was 6%.
